Assay results published in US20260234188A1, “CHEMOKINE-BINDING PEPTIDES” (Oxford University Innovation Limited, priority 2022, published 2026).
“Also recorded” adds a separate entry of the source.

What follows are substances tested on panel of up to 42 human chemokines (assay: Phage-display next generation sequencing screen of overlapping hexadecapeptide libraries, chemokines displayed on streptavidin beads). Settings: log2E greater than 5, chemokines named by first part of UniProt Entry Name.
Format: binding
Procedure, shortened: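 Phage-display libraries of 55662 overlapping hexadecapeptides from tick and viral chemokine-binding proteins, human chemokines and chemokine receptors screened against up to 42 human chemokines, with hits found by next-generation sequencing. Peptides mapped to parent-protein position with log2 fold enrichment; regions of interest where cumulative residue log2 E exceeds the 95% upper CI of the protein median.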
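Note: chemokine listed when log2 fold enrichment exceeds 5.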

Row | Substance | Chemokines Bound
1 | CR23002 (TIWLVGFLLALPEILF) | CCL17, CCL18, and CCL19, CCL20, and CCL25, CCL28, and X3CL1, SDF1, and CXL13, CXL14, and IL8
2 | CR23111 (TLFASDFVLMWAVFFM) | CCL15, CCL17,; also recorded: CCL20, CCL25,; also recorded: CXL14
3 | CR23112 (TLFASDFVLMWCVFFM) | CCL17, CCL19,; also recorded: CCL20, CCL22,; also recorded: CCL8, X3CL1
4 | CR23240 (TLPFWGISVAWHWVFG) | CCL17, CCL18,; also recorded: CCL20, X3CL1,; also recorded: CXL11
5 | CR23379 (TNFDFMILNLSFADLF) | CCL17, CCL18,; also recorded: X3CL1
6 | CR23443 (TNWKLLAEIYEYLFFF) | CCL17, CCL18,; also recorded: X3CL1, CXL10,; also recorded: CXL13
7 | CR23572 (TRFGVWLMSIVGTFLN) | CCL17, CCL18,; also recorded: CCL2, CCL20,; also recorded: CCL22, CCL25,; also recorded: X3CL1, IL8
8 | CR23587 (TRLGVWLMAIVGTFLN) | CCL18, CCL20,; also recorded: CCL22
9 | CR23773 (TSVITWLVAVFASVPG) | CCL1, CCL18, and CCL2, CCL20, and CCL8
10 | CR23880 (TTVILILAFFASWLPY) | CCL1, CCL18,; also recorded: CCL20, CCL25,; also recorded: CCL28, SDF1,; also recorded: CXL14
11 | CR23915 (TVFLSIFYSVIFAIGL) | CCL17, CCL18,; also recorded: CCL19, CCL2,; also recorded: CCL20, CCL22,; also recorded: CCL25, CCL28,; also recorded: CCL8, X3CL1,; also recorded: CXL10, CXL11,; also recorded: SDF1, CXL13,; also recorded: CXL14, IL8
12 | CR23943 (TVITFALYVGQFLAYV) | CCL2, CCL20,; also recorded: CCL22, X3CL1,; also recorded: CXL10, CXL11,; also recorded: SDF1, CXL13
13 | CR23945 (TVITFSLYVGQFLAYV) | CCL1, CCL15,; also recorded: CCL20, CCL22,; also recorded: CCL28, CXL10,; also recorded: CXL11, SDF1,; also recorded: CXL13
14 | CR23947 (TVKLIFAIVVAYFLSW) | CCL17, CCL20,; also recorded: CCL22, CCL28,; also recorded: SDF1, CXL14
15 | CR23950 (TVLATFKILICIVWGV) | CCL18, CCL19,; also recorded: CCL20, CCL25,; also recorded: SDF1, IL8
16 | CR23958 (TVLLSWKVLLTMVWGA) | CCL1, CCL18,; also recorded: CCL20, CCL25,; also recorded: CCL28, CXL10,; also recorded: CXL11, SDF1
17 | CR24063 (TWNLVLSQFFSILATM) | CCL1, CCL22,; also recorded: CXL11, CXL14
18 | CR24107 (TYIILLLTWFAGLIFS) | CCL22, CCL25,; also recorded: CXL11
19 | CR24347 (VAYSLIFLLGVIGNVL) | CCL18, CCL19,; also recorded: CCL20, CXL11,; also recorded: CXL14

Same assay, conditions: log2E greater than 5, chemokines named by first part of UniProt entry name, C5a (control) binders excluded

Row | Substance | Chemokines Bound
20 | CR14849 (LVLGLLLNSLALWVFC) | CCL17, CCL19, and CCL20, CCL28, and SDF1
21 | CR14850 (LVLGLLLNSLALWVFS) | CCL22, CCL28,; also recorded: CXL10, CXL11,; also recorded: SDF1, CXL14
22 | CR14974 (LVTLPFWGISVAWHWV) | CCL18, CCL25,; also recorded: CCL28
23 | CR14976 (LVTMAVWVASILSSIL) | CCL2, SDF1,; also recorded: CXL13
24 | CR15063 (LWVVVFQFQHIMVGLI) | CCL17, CCL18, and CCL19, CCL2, and CCL20, CCL22, and CCL28, CCL8, and X3CL1, CXL10, and CXL11, SDF1, and CXL13, CXL14, and IL8
25 | CR15077 (LYAHLAAAFLWVVVAV) | CCL18, CCL19,; also recorded: CCL20, CCL22,; also recorded: CCL25, CCL28,; also recorded: CXL10, CXL11,; also recorded: SDF1, IL8
26 | CR15079 (LYAHLASAFLWVVVAV) | CCL17, CCL18,; also recorded: CCL20, CCL22,; also recorded: CCL28, X3CL1,; also recorded: CXL10, CXL11,; also recorded: SDF1, CXL13,; also recorded: CXL14, IL8
27 | CR15153 (LYSLLFLLGLLGNGAV) | CCL18, CCL22,; also recorded: CCL25
28 | CR15502 (MIFTWNLVLSQFFSIL) | CCL11, CCL17,; also recorded: CCL18, CCL19,; also recorded: CCL20, CCL22,; also recorded: CCL25, CCL28,; also recorded: CCL8, X3CL1,; also recorded: CXL10, CXL11,; also recorded: SDF1, CXL13,; also recorded: CXL14, IL8
29 | CR15670 (MMTWFYAFFYSTVQRA) | CCL18, CCL2, and CCL20, CCL25, and CCL28, CCL8, and X3CL1, CXL13, and IL8
30 | CR15801 (MSFFSGMLLLLCISID) | CCL18, CCL20, and SDF1
31 | CR15915 (MVFSFFYVIFAKALHD) | CCL1, CCL18,; also recorded: CCL19, CCL20
32 | CR15917 (MVFSFFYVIFSKALHD) | CCL19, X3CL1,; also recorded: SDF1, CXL13
33 | CR15930 (MVIWVLAFFLSSPSLV) | CCL28, CXL10,; also recorded: CXL14
34 | CR15967 (MVWANLLVFVVSFLPL) | CCL1, CXL10, and SDF1
35 | CR16988 (NVTFTGLIAAFSWFML) | CCL17, CCL18,; also recorded: CCL20, CCL22,; also recorded: CCL25, CCL28,; also recorded: CXL10, SDF1,; also recorded: CXL14
36 | CR17126 (PCGIITSVLAWVTAIL) | CCL1, CCL20,; also recorded: CCL22, CCL28,; also recorded: X3CL1, CXL10,; also recorded: CXL11, SDF1,; also recorded: CXL14, IL8
37 | CR17298 (PGPWMNILWAWFIFWW) | CCL1, CCL17,; also recorded: CCL18, CCL19,; also recorded: CCL20, CCL28,; also recorded: CXL10, CXL14
38 | CR17781 (PSWIISFSVWMAAILL) | CCL17, CCL18, and CCL19, CCL2, and CCL20, CCL22, and CCL25, CCL28, and X3CL1, CXL10, and CXL11, SDF1, and CXL13, CXL14, and IL8
39 | CR17907 (PYHWGWVLGDFLAKLL) | CCL17, CCL18,; also recorded: CCL25
40 | CR18189 (QHNLFFLLSLGIILFC) | CCL17, CCL18,; also recorded: CCL22, CCL25,; also recorded: X3CL1, CXL14
41 | CR18714 (QYLKAFLAAVLGWHLA) | CCL18, CCL28,; also recorded: CXL13, CXL14
42 | CR18933 (RFGVWLMSIVGTFLNM) | CCL28, CXL10, and IL8
43 | CR18955 (RFRQYLKAFLAAVLGW) | CCL17, CCL18,; also recorded: CXL14
44 | CR19192 (RLGVWLMSIVGTFLNV) | CCL1, CCL17,; also recorded: CCL2, CCL25,; also recorded: X3CL1, CXL11
45 | CR19824 (RVTLTALAVWGLALLF) | CCL2, CCL22,; also recorded: CCL25, CXL10,; also recorded: CXL11, SDF1,; also recorded: CXL14, IL8
46 | CR19826 (RVTLTSLAVWGLSLLF) | CCL17, CCL2,; also recorded: X3CL1, CXL14

Row | Substance | Chemokines Bound
47 | CR20068 (SAVLTLKVILGFFLPF) | CCL17, CCL18,; also recorded: CCL20, CCL25,; also recorded: CCL28, CXL11
48 | CR20273 (SESALAFIYVLMFLCN) | CCL18, CCL19,; also recorded: CCL20, CXL14
49 | CR20429 (SFYISLFAGVSFLINL) | CCL22, CCL25,; also recorded: CXL10, CXL11
50 | CR20433 VP8386 (SFYVAMFASLSFITEI) | CCL1, X3CL1, and CXL10, CXL11, and IL8
51 | CR20481 (SGIFFIILLTIDRYLA) | CCL1, CCL19,; also recorded: CCL20, CCL22,; also recorded: CCL25, CCL28,; also recorded: X3CL1, CXL10,; also recorded: CXL11, SDF1
52 | CR20486: chemokine binding peptide of Table 5A used in FIG. 5 combinations (SGIITSVLAWVTAILA) | CCL11, CCL2,; also recorded: CCL8, IL8
53 | CR20557 (SGYDMWLMLVYSVMIP) | CCL1, CCL15,; also recorded: CCL25
54 | CR20660 (SIILMFLSDFSFIFSS) | CCL25, CXL13, and IL8
55 | CR20762 (SIYLLNLAISDLLFLF) | CCL22, CCL28,; also recorded: CXL10, CXL11,; also recorded: SDF1, CXL13,; also recorded: CXL14, IL8
56 | CR20939 (SLCLSISLLAEVLMFL) | CCL1, CCL18,; also recorded: CCL19, X3CL1
57 | CR20965 (SLFAALVTLITSLFGS) | CCL11, CCL17,; also recorded: CCL18, CCL19,; also recorded: CCL2, CCL20,; also recorded: CCL28, X3CL1,; also recorded: CXL10, CXL11,; also recorded: CXL14, IL8
58 | CR20981 (SLFSALVTLITSLFGS) | CCL1, CCL11,; also recorded: CCL17, CCL18,; also recorded: CCL2, CCL25,; also recorded: CCL8, X3CL1,; also recorded: CXL10, IL8
59 | CR21134 (SLSISLLAEVLMFLFP) | CCL17, CCL18, and CCL2, CCL25, and CCL28, X3CL1, and CXL10, CXL11, and SDF1, CXL14, and IL8
60 | CR21168 (SLVFIFGFVGNMLVIL) | CCL1, CCL22,; also recorded: CCL28, CXL10,; also recorded: CXL13, CXL14
61 | CR21236 (SMILESLFAALVTLIT) | CCL22, CXL10,; also recorded: CXL11, SDF1,; also recorded: CXL13, IL8
62 | CR21238: chemokine binding peptide of Table 5A used in FIG. 5 combinations (SMILESLFSALVTLIT) | CCL2, CXL11, and IL8
63 | CR21284 (SMVIWVLAFFLSSPSL) | CCL1, CCL18,; also recorded: CCL20
64 | CR21349: chemokine binding peptide of Table 5A used in FIG. 5 combinations (SNVTFTGLISAFSWFM) | CCL11, CCL2,; also recorded: CCL3, CCL4,; also recorded: CCL5, CCL8
65 | CR22218 (SVSLVNLLTIIGCLWV) | CCL19, X3CL1,; also recorded: CXL13
66 | CR22271 (SWIISFSVWMAAILLS) | CCL1, CCL17,; also recorded: CXL10
67 | CR22272 (SWKVLLTLVWGAAPVI) | CCL17, CCL18,; also recorded: CCL20, CCL22,; also recorded: CCL25, CCL28,; also recorded: X3CL1, CXL10,; also recorded: CXL11, SDF1,; also recorded: CXL14, IL8
68 | CR22363 (SYRSTYIILLLTWFAG) | CCL18, X3CL1,; also recorded: CXL10
69 | CR22658 (TENFEYDDLAEACYIG) | CCL17, CCL18,; also recorded: X3CL1
70 | CR22736 (TFGVVTSVITWLVAVF) | CCL1, CCL11, and CCL17, CCL18, and CCL2, CCL25, and CCL28, CCL8, and X3CL1, CXL10, and CXL11, SDF1, and CXL13, CXL14, and IL8
71 | CR22747 (TFKILICIVWGVMPVV) | CCL1, CCL17,; also recorded: CCL18, CCL20,; also recorded: CCL22, CCL28,; also recorded: X3CL1, CXL10,; also recorded: SDF1, CXL13,; also recorded: CXL14
72 | CR22748 (TFKILISIVWGVMPVV) | CCL17, CCL18,; also recorded: CCL19, CCL20,; also recorded: CCL22, CCL28,; also recorded: X3CL1, CXL10,; also recorded: CXL11, SDF1,; also recorded: CXL14, IL8
73 | CR22786 (TFTGLIAAFSWFMLSL) | CCL11, CCL17,; also recorded: CCL18, CCL2,; also recorded: CCL20, CCL22,; also recorded: CCL28, X3CL1,; also recorded: SDF1, IL8
